Data on 3 molecules can be found in patent US8486683B2, “Beta-glucosidase enzymes” (Iogen Energy Corporation, priority 2009, dated 2013).

Where “and” joins values, the source holds several entries; their conditions need not be identical. Equal values may be shown once.

Data set [1] addresses Beta-glucosidases from most fungi. The conditions noted are these: literature, read-out: KG values for glucose (glucose inhibition); cited from earlier work.
The target in data set [2] is Several microbial beta-glucosidases with higher tolerance to glucose inhibition. The conditions noted are these: literature, read-out: KG (tolerance to glucose inhibition); cited from earlier work.
The target in data set [3] is T1, Trichoderma reesei beta-glucosidase TrCel3A (Cel3A, BGL1), wild type (parental), SEQ ID NO: 116 / SEQ ID NO: 1 (Trichoderma reesei, UniProt Q12715).
T1 sequence (Q12715 32-744): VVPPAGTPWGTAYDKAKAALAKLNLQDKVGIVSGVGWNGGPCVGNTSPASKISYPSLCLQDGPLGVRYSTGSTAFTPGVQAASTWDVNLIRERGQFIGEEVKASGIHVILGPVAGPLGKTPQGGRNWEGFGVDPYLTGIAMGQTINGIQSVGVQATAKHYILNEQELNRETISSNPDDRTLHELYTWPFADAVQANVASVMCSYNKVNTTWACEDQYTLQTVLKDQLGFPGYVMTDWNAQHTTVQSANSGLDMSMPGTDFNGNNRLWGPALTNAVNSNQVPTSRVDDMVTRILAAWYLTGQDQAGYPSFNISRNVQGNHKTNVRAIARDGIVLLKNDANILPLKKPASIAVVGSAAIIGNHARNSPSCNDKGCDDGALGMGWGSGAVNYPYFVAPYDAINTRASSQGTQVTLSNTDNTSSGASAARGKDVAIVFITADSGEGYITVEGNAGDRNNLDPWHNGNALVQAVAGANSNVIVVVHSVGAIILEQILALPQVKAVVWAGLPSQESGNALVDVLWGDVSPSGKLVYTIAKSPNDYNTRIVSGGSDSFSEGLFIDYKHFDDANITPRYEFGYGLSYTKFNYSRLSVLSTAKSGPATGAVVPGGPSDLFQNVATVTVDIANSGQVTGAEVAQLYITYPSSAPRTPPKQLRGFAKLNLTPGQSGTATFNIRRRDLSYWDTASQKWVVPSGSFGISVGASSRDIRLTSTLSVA
The data set is described as follows: pNPG competitive substrate/inhibitor real-time kinetic assay, parental TrCel3A (Example 8).

The target in data set [4] is T1, Trichoderma reesei beta-glucosidase TrCel3A (Cel3A, BGL1), wild type (parental), SEQ ID NO: 116 / SEQ ID NO: 1. Put plainly: Initial rate assay of cellobiose hydrolysis, parental TrCel3A (Example 9). The format is biochemical. From the text: (§1) KG is defined as the concentration of glucose which reduces the enzymatic activity of the beta-glucosidase by 50%. […] The kcat is the catalytic rate constant for the hydrolysis of cellobiose. Example 8 details an assay for measuring the KG and KG2 of parental and modified TrCel3A beta-glucosidases. Example 9 details an assay for measuring the kcat of parental and modified TrCel3A beta-glucosidases.
(§2) KG of the parental and modified TrCel3A beta-glucosidases can be determined by measuring the rate of hydrolysis of a chromogenic substrate, such as p-nitrophenyl-beta-D-glucopyranoside (pNPG), in the presence of various concentrations of glucose as described in Example 8. […] The KG2 constants for parental and modified TrCel3A beta-glucosidases can be determined by measuring the rate of hydrolysis of cellobiose in reactions containing increasing concentrations of cellobiose or, alternatively, by measuring the rate of hydrolysis of a chromogenic substrate, such as pNPG, in the presence of various concentrations of a cellobiose as described in Example 8. […] The kcat values for parental and modified TrCel3A beta-glucosidases can be determined by measuring the rate of cellobiose hydrolysis at varying concentrations of a cellobiose substrate, for example, as described in Example 9. […]

Data set [5] has as its system Trichoderma reesei beta-glucosidase TrCel3A variant TrCel3A-I543N, SEQ ID NO: 10 (full: SEQ ID NO: 125). The data set is described as follows: Initial rate assay of cellobiose hydrolysis, TrCel3A-I543N (Example 9). The format is biochemical. As to conditions: relative to parental TrCel3A.
Source text: as §1, §2

Substrate in data set [6]: OC[C@H]1O[C@@H](O[C@H]2[C@H](O)[C@@H](O)C(O)O[C@@H]2CO)[C@H](O)[C@@H](O)[C@@H]1O
The data set is described as follows: purified protein, by the assay type. The conditions noted are these: other: 0.4 mM pNPG, 3 mM cellobiose, 50 mM citrate pH 5.0, 50° C.

Regarding `OC[C@H]1OC(O)[C@H](O)[C@@H](O)[C@@H]1O` (some centres unmarked) [glucose], the Ki in data set [1] was 600 to 8000 µM; in data set [2] it was above 8000 µM; in data set [3], 580 µM.

Take `OC[C@H]1O[C@@H](O[C@H]2[C@H](O)[C@@H](O)C(O)O[C@@H]2CO)[C@H](O)[C@@H](O)[C@@H]1O` (stereo partly drawn) [cellobiose, gluco-beta-(1,4)-glucoside]: in data set [4] (0.3 to 40 mM cellobiose, 50° C., 15 min), the “kcat (catalytic rate constant for cellobiose)” value was 8.92 µmol/min/mg and 8.92 ± 0.29 µmol/min/mg. The Relative kcat in data set [4] (cellobiose, relative to parental TrCel3A) is 1; in data set [5] it was 0.73. Moreover, the “Relative KG2” value in data set [3] (relative to parental TrCel3A) is reported as 1.00.

B1: Trichoderma reesei beta-glucosidase TrCel3A (Cel3A, BGL1), wild type (parental), SEQ ID NO: 116 / SEQ ID NO: 1 (Trichoderma reesei) (protein)
chain: T1 sequence (Q12715 32-744)
A word on the Km: it is the concentration of substrate that gives half-maximal velocity. As for B1, the Michaelis constant (Km) in data set [6] came to 1180 ± 120 µM.
